Test results published in patent US9926282B2, “Phthalazinones and isoquinolinones as rock inhibitors” (BRISTOL-MYERS SQUIBB COMPANY, priority 2013, dated 2018).

What was measured:
[1] = biological target: ROCK1 (Homo sapiens (Human), UniProt Q13464); assay: ROCK assay (LABCHIP peptide phosphorylation), ROCK1; format: biochemical; conditions: 5 μM ATP, 1.5 μM peptide substrate; read-out: ROCK1 IC50
[2] = biological target: ROCK2 (Homo sapiens (Human), UniProt O75116); assay: ROCK assay (LABCHIP peptide phosphorylation), ROCK2; format: biochemical; conditions: 5 μM ATP, 1.5 μM peptide substrate
Sequence of ROCK2 (O75116 whole entry, species assumed): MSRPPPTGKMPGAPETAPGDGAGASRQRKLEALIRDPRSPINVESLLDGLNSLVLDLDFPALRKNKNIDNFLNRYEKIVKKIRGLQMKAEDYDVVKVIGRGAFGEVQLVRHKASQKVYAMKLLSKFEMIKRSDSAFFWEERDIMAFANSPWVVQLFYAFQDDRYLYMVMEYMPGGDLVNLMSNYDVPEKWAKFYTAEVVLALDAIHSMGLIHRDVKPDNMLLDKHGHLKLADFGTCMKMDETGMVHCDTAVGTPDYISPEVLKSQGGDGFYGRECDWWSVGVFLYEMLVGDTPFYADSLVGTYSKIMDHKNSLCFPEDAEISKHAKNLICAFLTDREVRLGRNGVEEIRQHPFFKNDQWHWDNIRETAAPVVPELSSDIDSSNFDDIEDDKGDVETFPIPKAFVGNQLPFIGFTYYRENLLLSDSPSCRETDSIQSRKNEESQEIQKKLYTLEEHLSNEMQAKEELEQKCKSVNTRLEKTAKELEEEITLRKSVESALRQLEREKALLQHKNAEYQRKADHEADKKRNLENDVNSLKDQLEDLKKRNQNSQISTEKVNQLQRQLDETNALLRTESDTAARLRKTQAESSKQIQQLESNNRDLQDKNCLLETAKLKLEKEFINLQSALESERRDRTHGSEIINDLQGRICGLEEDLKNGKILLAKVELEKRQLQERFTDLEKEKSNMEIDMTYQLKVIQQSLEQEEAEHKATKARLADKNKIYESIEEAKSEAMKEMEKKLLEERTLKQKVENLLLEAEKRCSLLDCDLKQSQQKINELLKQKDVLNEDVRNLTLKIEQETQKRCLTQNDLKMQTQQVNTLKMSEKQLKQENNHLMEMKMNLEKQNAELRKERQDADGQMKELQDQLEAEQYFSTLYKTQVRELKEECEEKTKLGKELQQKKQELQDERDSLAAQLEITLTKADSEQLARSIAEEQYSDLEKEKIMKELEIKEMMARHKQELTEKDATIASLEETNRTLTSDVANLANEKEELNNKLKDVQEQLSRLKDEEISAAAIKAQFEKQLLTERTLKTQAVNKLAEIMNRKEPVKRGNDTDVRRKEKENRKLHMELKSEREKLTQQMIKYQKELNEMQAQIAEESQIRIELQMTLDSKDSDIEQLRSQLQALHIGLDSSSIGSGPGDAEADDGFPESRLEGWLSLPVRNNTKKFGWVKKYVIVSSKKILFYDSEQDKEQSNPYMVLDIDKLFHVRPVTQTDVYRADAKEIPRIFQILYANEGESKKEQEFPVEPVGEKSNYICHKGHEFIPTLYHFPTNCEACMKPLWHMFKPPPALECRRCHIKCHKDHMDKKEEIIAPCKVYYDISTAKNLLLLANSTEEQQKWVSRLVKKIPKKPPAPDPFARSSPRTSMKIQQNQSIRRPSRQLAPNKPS

Sequence of ROCK1 (Q13464 whole entry, species assumed): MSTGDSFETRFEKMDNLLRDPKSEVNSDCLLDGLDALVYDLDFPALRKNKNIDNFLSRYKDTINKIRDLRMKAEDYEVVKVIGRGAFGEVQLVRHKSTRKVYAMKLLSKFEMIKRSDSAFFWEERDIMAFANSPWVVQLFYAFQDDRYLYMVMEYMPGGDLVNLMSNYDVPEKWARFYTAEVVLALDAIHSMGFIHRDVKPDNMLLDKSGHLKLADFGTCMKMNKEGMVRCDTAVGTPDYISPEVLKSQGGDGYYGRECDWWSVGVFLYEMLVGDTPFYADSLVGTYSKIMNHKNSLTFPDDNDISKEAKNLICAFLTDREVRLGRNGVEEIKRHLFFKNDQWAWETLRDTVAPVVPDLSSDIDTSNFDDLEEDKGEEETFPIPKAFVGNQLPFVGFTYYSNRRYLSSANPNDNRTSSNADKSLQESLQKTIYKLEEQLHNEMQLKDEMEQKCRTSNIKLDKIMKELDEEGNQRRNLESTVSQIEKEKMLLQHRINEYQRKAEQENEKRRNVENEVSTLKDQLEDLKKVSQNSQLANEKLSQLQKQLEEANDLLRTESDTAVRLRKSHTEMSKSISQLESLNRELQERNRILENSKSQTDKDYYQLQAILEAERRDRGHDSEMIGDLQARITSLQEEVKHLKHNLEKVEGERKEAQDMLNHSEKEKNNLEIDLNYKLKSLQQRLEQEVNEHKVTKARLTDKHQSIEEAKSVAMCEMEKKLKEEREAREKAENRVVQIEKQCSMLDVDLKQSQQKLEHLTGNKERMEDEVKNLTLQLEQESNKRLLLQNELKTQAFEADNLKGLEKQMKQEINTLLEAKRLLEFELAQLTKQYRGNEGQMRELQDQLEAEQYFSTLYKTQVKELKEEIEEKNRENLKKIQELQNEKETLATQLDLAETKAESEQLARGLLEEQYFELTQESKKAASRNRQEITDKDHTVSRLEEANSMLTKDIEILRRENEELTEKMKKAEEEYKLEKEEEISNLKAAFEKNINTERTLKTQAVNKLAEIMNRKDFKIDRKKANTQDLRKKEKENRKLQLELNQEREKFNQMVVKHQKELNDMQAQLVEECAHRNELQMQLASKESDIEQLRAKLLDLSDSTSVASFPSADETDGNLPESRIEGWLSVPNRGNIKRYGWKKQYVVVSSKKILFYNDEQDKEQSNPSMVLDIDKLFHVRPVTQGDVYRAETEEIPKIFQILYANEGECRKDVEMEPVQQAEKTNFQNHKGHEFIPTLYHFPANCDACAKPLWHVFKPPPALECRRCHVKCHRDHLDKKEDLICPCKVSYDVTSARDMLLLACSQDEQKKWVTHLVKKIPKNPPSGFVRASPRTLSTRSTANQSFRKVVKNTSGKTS

Row | Structure (SMILES) | IC50 [1] | IC50 [2] | IC50 ([2]; given as number)
1 | CC(=O)N1CC(Cn2nc(C(=O)Nc3ccc(-c4n[nH]c(=O)c5ccccc45)cc3)c3ccccc32)C1 [Example 339, 1-((1-Acetylazetidin-3-yl)methyl)-N-(4-(4-oxo-3,4-dihydrophthalazin-1-yl)phenyl)-1H-indazole-3-carboxamide] | 0.1 to 100 nM | 0.1 to 100 nM | –
2 | CN1CC(Cn2nc(C(=O)Nc3ccc(-c4n[nH]c(=O)c5ccccc45)cc3)c3ccccc32)C1 [Example 340, 1-((1-Methylazetidin-3-yl)methyl)-N-(4-(4-oxo-3,4-dihydrophthalazin-1-yl)phenyl)-1H-indazole-3-carboxamide] | 0.1 to 100 nM | 0.1 to 100 nM | –
3 | COC(=O)N1CC(Cn2nc(C(=O)Nc3ccc(-c4n[nH]c(=O)c5ccccc45)cc3)c3ccccc32)C1 [Example 341, Methyl 3-((3-((4-(4-oxo-3,4-dihydrophthalazin-1-yl)phenyl)carbamoyl)-1H-indazol-1-yl)methyl)azetidine-1-carboxylate] | 0.1 to 100 nM | 0.1 to 100 nM | –
4 | CC(=O)N1CCC(Cn2nc(C(=O)Nc3ccc(-c4n[nH]c(=O)c5ccccc45)cc3)c3ccccc32)CC1 [Example 343, 1-((1-Acetylpiperidin-4-yl)methyl)-N-(4-(4-oxo-3,4-dihydrophthalazin-1-yl)phenyl)-1H-indazole-3-carboxamide] | 0.1 to 100 nM | 0.1 to 100 nM | –
5 | COC(=O)N1CCC(Cn2nc(C(=O)Nc3ccc(-c4n[nH]c(=O)c5ccccc45)cc3)c3ccccc32)CC1 [Example 344, Methyl 4-((3-((4-(4-oxo-3,4-dihydrophthalazin-1-yl)phenyl)carbamoyl)-1H-indazol-1-yl)methyl)piperidine-1-carboxylate] | 0.1 to 100 nM | 0.1 to 100 nM | –
6 | COc1cc(NC(=O)c2nn(CC(C)(C)O)c3ccccc23)ccc1-c1n[nH]c(=O)c2ccccc12 [Example 345, 1-(2-Hydroxy-2-methylpropyl)-N-(3-methoxy-4-(4-oxo-3,4-dihydrophthalazin-1-yl)phenyl)-1H-indazole-3-carboxamide] | 101 to 1000 nM | 0.1 to 100 nM | –
7 | CCOc1cc(NC(=O)c2nn(CC(C)(C)O)c3ccccc23)ccc1-c1n[nH]c(=O)c2ccccc12 [Example 346, N-(3-Ethoxy-4-(4-oxo-3,4-dihydrophthalazin-1-yl)phenyl)-1-(2-hydroxy-2-methylpropyl)-1H-indazole-3-carboxamide] | 1000 to 50000 nM | 101 to 1000 nM | –
8 | CCOc1cc(NC(=O)c2nn(CC3CCOC3)c3ccccc23)ccc1-c1n[nH]c(=O)c2ccccc12 (stereo not shown) [Example 347, N-(3-Ethoxy-4-(4-oxo-3,4-dihydrophthalazin-1-yl)phenyl)-1-((tetrahydrofuran-3-yl)methyl)-1H-indazole-3-carboxamide] | 1000 to 50000 nM | 101 to 1000 nM | –
9 | COc1cc(NC(=O)c2nn(CC3CCOC3)c3ccccc23)ccc1-c1n[nH]c(=O)c2ccccc12 (stereo not shown) [Example 348, N-(3-Methoxy-4-(4-oxo-3,4-dihydrophthalazin-1-yl)phenyl)-1-((tetrahydrofuran-3-yl)methyl)-1H-indazole-3-carboxamide] | 101 to 1000 nM | 0.1 to 100 nM | –
10 | CC(C)OC(=O)N1CCC(Cn2nc(C(=O)Nc3ccc(-c4n[nH]c(=O)c5ccccc45)cc3)c3ccccc32)CC1 [Example 349, Propan-2-yl 4-[(3-{[4-(4-oxo-3,4-dihydrophthalazin-1-yl)phenyl]carbamoyl}-1H-indazol-1-yl)methyl]piperidine-1-carboxylate] | 0.1 to 100 nM | 0.1 to 100 nM | –
11 | O=C(Nc1ccc(-c2n[nH]c(=O)c3ccccc23)cc1)c1nn(CC2CCN(C(=O)OCCF)CC2)c2ccccc12 [Example 350, 2-Fluoroethyl 4-[(3-{[4-(4-oxo-3,4-dihydrophthalazin-1-yl)phenyl]carbamoyl}-1H-indazol-1-yl)methyl]piperidine-1-carboxylate] | 0.1 to 100 nM | 0.1 to 100 nM | –
12 | O=C(Nc1ccc(-c2n[nH]c(=O)c3ccccc23)cc1)c1nn(CC2CCN(C(=O)OCC(F)(F)F)CC2)c2ccccc12 [Example 351, 2,2,2-Trifluoroethyl 4-[(3-{[4-(4-oxo-3,4-dihydrophthalazin-1-yl)phenyl]carbamoyl}-1H-indazol-1-yl)methyl]piperidine-1-carboxylate] | 0.1 to 100 nM | 0.1 to 100 nM | –
13 | COc1cc(-c2n[nH]c(=O)c3ccccc23)ccc1NC(=O)c1nn(CC2CCOC2)c2ccccc12 (stereo not shown) [Example 352, N-(2-Methoxy-4-(4-oxo-3,4-dihydrophthalazin-1-yl)phenyl)-1-((tetrahydrofuran-3-yl)methyl)-1H-indazole-3-carboxamide] | 1000 to 50000 nM | 101 to 1000 nM | –
14 | CC(C)(O)Cn1nc(C(=O)Nc2ccc(-c3n[nH]c(=O)c4ccccc34)cc2O)c2ccccc21 [Example 353, 1-(2-Hydroxy-2-methylpropyl)-N-(2-hydroxy-4-(4-oxo-3,4-dihydrophthalazin-1-yl)phenyl)-1H-indazole-3-carboxamide] | 101 to 1000 nM | 0.1 to 100 nM | –
15 | O=C(Nc1ccc(-c2n[nH]c(=O)c3ccccc23)cc1O)c1nn(CC2CCOC2)c2ccccc12 (stereo not shown) [Example 354, N-(2-Hydroxy-4-(4-oxo-3,4-dihydrophthalazin-1-yl)phenyl)-1-((tetrahydrofuran-3-yl)methyl)-1H-indazole-3-carboxamide] | 0.1 to 100 nM | 0.1 to 100 nM | –
16 | O=C(Nc1ccc(-c2n[nH]c(=O)c3ccccc23)c(CO)c1)c1nn(CC2CCOC2)c2ccccc12 (stereo not shown) [Example 355, N-(3-(Hydroxymethyl)-4-(4-oxo-3,4-dihydrophthalazin-1-yl)phenyl)-1-((tetrahydrofuran-3-yl)methyl)-1H-indazole-3-carboxamide] | 1000 to 50000 nM | 0.1 to 100 nM | –
17 | CN1CCC(Cn2nc(C(=O)Nc3ccc(-c4n[nH]c(=O)c5ccccc45)cc3)c3ccccc32)CC1 [Example 356, 1-((1-Methylpiperidin-4-yl)methyl)-N-(4-(4-oxo-3,4-dihydrophthalazin-1-yl)phenyl)-1H-indazole-3-carboxamide] | 0.1 to 100 nM | 101 to 1000 nM | –
18 | COc1cc(-c2n[nH]c(=O)c3ccccc23)ccc1NC(=O)c1nn(CC(C)(C)O)c2ccccc12 [Example 357, 1-(2-Hydroxy-2-methylpropyl)-N-(2-methoxy-4-(4-oxo-3,4-dihydrophthalazin-1-yl)phenyl)-1H-indazole-3-carboxamide] | 1000 to 50000 nM | 101 to 1000 nM | –
19 | O=C(Nc1ccc(-c2n[nH]c(=O)c3ccccc23)c(CO)c1)c1nn(CCO)c2ccccc12 [Example 359, 1-(2-Hydroxyethyl)-N-(3-(hydroxymethyl)-4-(4-oxo-3,4-dihydrophthalazin-1-yl)phenyl)-1H-indazole-3-carboxamide] | 1000 to 50000 nM | 0.1 to 100 nM | –
20 | CC(C)(O)Cn1nc(C(=O)Nc2ccc(-c3n[nH]c(=O)c4ccccc34)c(CO)c2)c2ccccc21 [Example 360, 1-(2-Hydroxy-2-methylpropyl)-N-(3-(hydroxymethyl)-4-(4-oxo-3,4-dihydrophthalazin-1-yl)phenyl)-1H-indazole-3-carboxamide] | 1000 to 50000 nM | 0.1 to 100 nM | –
21 | O=C(Nc1ccc(-c2n[nH]c(=O)c3ccccc23)c(CO)c1)c1cnn2ccccc12 [Example 362, N-(3-(Hydroxymethyl)-4-(4-oxo-3,4-dihydrophthalazin-1-yl)phenyl)pyrazolo[1,5-a]pyridine-3-carboxamide] | 1000 to 50000 nM | 0.1 to 100 nM | –
22 | Cn1nc(C(=O)Nc2ccc(-c3n[nH]c(=O)c4ccccc34)c(CO)c2)c2ccccc21 [Example 363, N-(3-(Hydroxymethyl)-4-(4-oxo-3,4-dihydrophthalazin-1-yl)phenyl)-1-methyl-1H-indazole-3-carboxamide] | 1000 to 50000 nM | 0.1 to 100 nM | –
23 | CC(C)n1nc(C(=O)Nc2ccc(-c3n[nH]c(=O)c4ccccc34)c(CO)c2)c2ccccc21 [Example 364, N-(3-(Hydroxymethyl)-4-(4-oxo-3,4-dihydrophthalazin-1-yl)phenyl)-1-isopropyl-1H-indazole-3-carboxamide] | 101 to 1000 nM | 0.1 to 100 nM | –
24 | O=C(Nc1ccc(-c2n[nH]c(=O)c3ccccc23)c(CO)c1)c1cnc2ccccn12 [Example 365, N-(3-(Hydroxymethyl)-4-(4-oxo-3,4-dihydrophthalazin-1-yl)phenyl)imidazo[1,2-a]pyridine-3-carboxamide] | 1000 to 50000 nM | – | 222 nM
25 | O=C(Nc1ccc(-c2n[nH]c(=O)c3ccccc23)c(CO)c1)c1nn(CC2CCOC2)c2ccc(F)cc12 (stereo not shown) [Example 366, 5-Fluoro-N-(3-(hydroxymethyl)-4-(4-oxo-3,4-dihydrophthalazin-1-yl)phenyl)-1-((tetrahydrofuran-3-yl)methyl)-1H-indazole-3-carboxamide] | 101 to 1000 nM | 0.1 to 100 nM | –
26 | O=C(Nc1ccc(-c2n[nH]c(=O)c3ccccc23)c(CO)c1)c1nn(CC2CCCO2)c2ccccc12 (stereo not shown) [Example 367, N-(3-(Hydroxymethyl)-4-(4-oxo-3,4-dihydrophthalazin-1-yl)phenyl)-1-((tetrahydrofuran-2-yl)methyl)-1H-indazole-3-carboxamide] | 1000 to 50000 nM | 0.1 to 100 nM | –
27 | O=C(Nc1ccc(-c2n[nH]c(=O)c3ccccc23)c(CO)c1)c1nn(CC2CCOC2)c2cc(F)ccc12 (stereo not shown) [Example 368, 6-Fluoro-N-(3-(hydroxymethyl)-4-(4-oxo-3,4-dihydrophthalazin-1-yl)phenyl)-1-((tetrahydrofuran-3-yl)methyl)-1H-indazole-3-carboxamide] | 1000 to 50000 nM | 0.1 to 100 nM | –
28 | COc1ccc2c(-c3ccc(NC(=O)c4nn(CC(C)(C)O)c5ccccc45)cc3)n[nH]c(=O)c2c1 [Example 369, 1-(2-Hydroxy-2-methylpropyl)-N-(4-(6-methoxy-4-oxo-3,4-dihydrophthalazin-1-yl)phenyl)-1H-indazole-3-carboxamide] | 101 to 1000 nM | 0.1 to 100 nM | –
29 | COc1ccc2c(-c3ccc(NC(=O)c4cn5ccccc5n4)cc3)n[nH]c(=O)c2c1 [Example 370, N-(4-(6-Methoxy-4-oxo-3,4-dihydrophthalazin-1-yl)phenyl)imidazo[1,2-a]pyridine-2-carboxamide] | 1000 to 50000 nM | 0.1 to 100 nM | –
